Source: patent US6458585B1, “Cytokine-free culture of dendritic cells” (Nexell Therapeutics Inc., priority 1996, dated 2002)

B1: IL-4: interleukin-4, Genzyme; added to GM-CSF (protein, UniProt P05112 25-153, looked up)
Interleukin-4: HKCDITLQEIIKTLNSLTEQKTLCTELTVTDIFAASKNTTEKETFCRAATVLRQFYSHHEKDTRCLGATAQQFHRHKQLIRFLKRLDRNLWGLAGLNSCPVKEANQSTLENFLERLKTIMREKYSKCSS

Columns and labels:
Assay type in all cases: cell-based, human
[1] = system: adherent PBMNC; test: Cell counts and viability of plastic adherent cells cultured with non-cytokine additives in polystyrene plates; set-up: % VIABLE: concentration or dose not given beside the values; conditions: for % VIABLE: propidium iodide
Protocol: Viability Determination: Prior to acquisition, 5 ul propidium iodide (PI) was added to each tube for use as a viability check. The cells were vortexed and acquired within 10 min of PI addition.
(§1) Enrichment and Culture of Adherent Cells Using Polystyrene Tissue Culture Plates: PBMNC were resuspended in culture media (X-VIVO 15™+10% autologous serum) at 2×10^6 cells/ml. Cells were placed into 48 well polystyrene tissue culture plates […] and incubated for 2 hours in a 5% CO2, ambient O2, 37° C. humidified incubator. Non-adherent cells were removed from the plates then wells were rinsed with X-VIVO 15™ containing no serum. Cells remaining in the wells were adherent cells. These cells were cultured by adding 2 ml of X-VIVO 15™ to each well plus GM-CSF and IL-4 at final concentrations of 50 ng/ml and 1000 U/ml or the following: cAMP at 0.5 mM, dibutyryl cAMP at 0.1 mM, NaF at 0.25 mM, theophylline at 0.5 mM, PGE at 0.1 mM, Vitamin D3 at 2.5 uM, Vitamin E at 0.1%, Retinoic Acid at 10^−6 M, PMA at 1 pM, Linoleic Acid at 5 ug/ml, or Ca^++ Ionophore at 10 mM. Furthermore, cells were also cultured with the above non-cytokine additives plus GM-CSF at 50 ng/ml. Cells were cultured in a 5% CO2, ambient O2, 37° C. humidified incubator for 7 days.
(§2) Results: In the set of experiments using plastic adherent cells grown in polystyrene tissue culture plates, a Day 0 analysis of the cells was not performed. However, these cultures were analyzed for the presence of DC on days 4 and 7. Analysis perfomed were cell counts, viability via propidium iodide, morphology under Wright-Geimsa staining, and immunohistochemical staining using an anti-S100 antibody.

[2] = system: adherent PBMNC; test: S100 immunohistochemistry of plastic adherent cells cultured with non-cytokine additives; conditions: for percentages of S100+ cells: day 7, additive added to GM-CSF 50 ng/ml
Protocol: Immunocytochemical staining: PBS (phosphate buffered saline) was made by dissolving 5 PBS tablets into 1000 ml millipore water. Cytospin slides were soaked in PBS. […] Slides were rinsed with PBS one time. Non-specific binding sites were blocked by incubating with normal serum matching source of secondary antibody (i.e. if secondary antibody is biotinylated goat-anti-mouse, used normal goat serum) at room temp. for 15 min. in a humidified environment. Excess serum was shaken from slides and placed 100 ul of primary antibody on slide, making sure cells are covered with liquid and incubated in humidified environment, room temp, for one hour. Negative control slides were incubated with normal serum for this hour. Slides were rinsed 3 times with PBS. Slides were incubated with biotinylated antibody reactive against the primary antibody (i.e. if primary antibody is mouse-anti-human, use a biotinylated goat-anti-mouse antibody) for 1 hour in humidity. Slides were rinsed 3 times with PBS. Slides were incubated with streptavidin-peroxidase, 2 drops/slide, for 30 min. in humidity. Slides were rinsed 3 times with PBS.
Chromagen solution was made with 5 ml millipore water+2 drops of chromagen buffer+1 drop of concentrated chromagen+1 drop of substrate, and 4-5 drops were added to each slide. […] Slides were counterstained with hematoxylin for about 5 min, or until cell nuclei were stained purple. Cells were rinsed with tap water and allowed to air dry. Slides were covered with crystal mount and oven dried at 80 degrees for 15 min. Slides were allowed to cool, then coversliped with mounting medium.
as §1
(§3) Cytospin slide preparation, Wright-Geimsa and immunohistochemical staining of the cultured cells were conducted as described in Example 1 and 2 above. Mixed lymphocyte reactions (MLR's) were setup using T cells (responders) and dendritic cell enriched cultures (stimulators) from bulk PBMNC cultures, as described above in Example 1.
as §2

[3] = system: adherent PBMNC; test: DC morphology (Wright-Geimsa) of plastic adherent cells cultured with non-cytokine additives
Protocol: Cytofunnels were attached to microscope slides. 50,000 to 100,000 cells were removed from each culture and resuspended in approximately 100 to 200 ul of PBS-CMF. Slides were placed in the Cytospin® centrifuge and spun at 100 rpm for 4 min. Cytofunnels were removed from the slides and the slides were air dried for 1 minute. Ten drops of Wright-Geimsa stain were placed onto each slide and allowed to fix for 1 to 2 minutes. Ten drops of water were added to each slide and allowed to sit for 2 to 4 minutes. The slides were rinsed and air dried.
Reading of Cytospin Slides: Slides were read under phase contrast microscopy, 40× and 60× oil magnification. One hundred cells were identified and characterized morphologically as either dendritic cells or non-dendritic cells (lymphocytes and monocyte, or CD34+-derived cells in those cases). Digital images were taken using a color monitor and color video printer.
as §1, §3, §2

| Molecule | TOTAL CELLS ([1]; Day 4, with GM-CSF present) | % VIABLE ([1]; Day 4, with GM-CSF present) | TOTAL CELLS ([1]; Day 4, without GM-CSF) | % VIABLE ([1]; Day 4, without GM-CSF) | TOTAL CELLS ([1]; Day 7, with GM-CSF present) | % VIABLE ([1]; Day 7, with GM-CSF present) | TOTAL CELLS ([1]; Day 7, without GM-CSF) | % VIABLE ([1]; Day 7, without GM-CSF) | % S100+ ([2]; Day 4, with GM-CSF present) | % S100+ ([2]; Day 4, without GM-CSF) | % S100+ ([2]; Day 7, with GM-CSF present) | % S100+ ([2]; Day 7, without GM-CSF) | % DC ([3]; Day 4, with GM-CSF present) | % DC ([3]; Day 4, without GM-CSF) | % DC ([3]; Day 7, with GM-CSF present) | % DC ([3]; Day 7, without GM-CSF) | percentages of S100+ cells [2] |
| --- | --- | --- | --- | --- | --- | --- | --- | --- | --- | --- | --- | --- | --- | --- | --- | --- | --- |
| Cn1c(=O)c2[nH]cnc2n(C)c1=O [theophylline, Theophylline] | 1.34E + 05 | 88.75% | 2.12E + 05 | 75.27% | 9.65E + 05 | 59.55% | 1.81E + 05 | 56.49% | 8.50% | 6.00% | 11.00% | 7.50% | 6.50% | 0.50% | 3.50% | 0.00% | – |
| Cc1c(C)c2c(c(C)c1O)CCC(C)(CCCC(C)CCCC(C)CCCC(C)C)O2 (mixture of isomers) [Vit E] | 1.38E + 05 | 97.48% | 1.64E + 05 | 78.65% | 1.05E + 05 | 94.21% | 1.75E + 05 | 71.91% | 26.00% | 19.00% | 19.00% | 11.00% | 4.50% | 2.50% | 6.00% | 3.00% | – |
| Nc1ncnc2c1ncn2[C@@H]1O[C@@H]2COP(=O)(O)O[C@H]2[C@H]1O [cAMP, Cyclic Adenosine Monophosphate] | 2.02E + 05 | 87.60% | 1.86E + 05 | 76.37% | 1.56E + 05 | 60.51% | 2.08E + 05 | 19.89% | 41.00% | 10.50% | 47.00% | 10.00% | 3.00% | 0.00% | 0.00% | 0.50% | greatest percentages of S100+ cells |
| CNc1ccc2oc(CC3OC4(CCC3C)OC(C(C)C(=O)c3ccc[nH]3)C(C)CC4C)nc2c1C(=O)O (stereo not drawn) [Ca + + Iono] | 1.66E + 05 | 96.23% | – | – | – | – | 1.54E + 05 | 84.02% | 20.00% | – | – | 29.00% | 9.50% | – | – | 6.00% | – |
| CCCCC[C@H](O)/C=C/[C@H]1[C@H](O)CC(=O)[C@@H]1CCCCCCC(=O)O [PGE, Prostaglandin E1] | 2.35E + 05 | 92.40% | 2.54E + 05 | 71.62% | 1.84E + 05 | 60.29% | 2.91E + 05 | 59.78% | 6.00% | 0.00% | 26.50% | 5.00% | 5.00% | 3.00% | 5.50% | 0.00% | – |
| CCCC(=O)Nc1ncnc2c1ncn2[C@@H]1O[C@@H]2COP(=O)(O)O[C@H]2[C@H]1OC(=O)CCC [dibutyryl cAMP, Dibutyryl cAMP] | 1.74E + 05 | 85.86% | 2.18E + 05 | 71.00% | 1.37E + 05 | 61.25% | 2.59E + 05 | 58.87% | 17.00% | 6.00% | 14.00% | 8.00% | 2.50% | 0.00% | 2.50% | 0.00% | – |
| [F-].[Na+] [NaF, Sodium Fluoride] | 1.90E + 05 | 67.04% | 2.19E + 05 | 72.46% | 1.44E + 05 | 30.61% | 2.18E + 05 | 44.31% | 7.00% | 0.00% | 5.00% | 2.50% | 0.00% | 0.00% | 0.00% | 0.00% | – |
| C=C1CCC(O)CC1=CC=C1CCCC2(C)C1CCC2C(C)CCCC(C)C (stereo not drawn) [Vit D3] | 1.95E + 05 | 95.86% | 2.37E + 05 | 76.06% | 1.64E + 05 | 67.44% | 1.82E + 05 | 75.13% | 8.00% | 5.50% | 39.00% | 16.00% | 3.00% | 1.50% | 5.00% | 0.50% | – |
| CC1=C(/C=C/C(C)=C/C=C/C(C)=C/C(=O)O)C(C)(C)CCC1 [Ret Acid] | 1.21E + 05 | 95.30% | 1.48E + 05 | 60.67% | – | 88.52% | 1.66E + 05 | 45.17% | 9.00% | 7.00% | 14.00% | 7.00% | 1.50% | 10.00% | 4.00% | 0.00% | – |
| CCCCCCCCCCCCCC(=O)O[C@@H]1[C@@H](C)[C@@]2(O)[C@@H](C=C(CO)C[C@]3(O)C(=O)C(C)=C[C@@H]23)[C@@H]2C(C)(C)[C@]12OC(C)=O [PMA, Phorbol Myristate Acetate] | 1.45E + 05 | 97.60% | 1.64E + 05 | 77.17% | 1.04E + 05 | 95.15% | 1.51E + 05 | 82.20% | 20.00% | 4.00% | 26.50% | 6.50% | 4.50% | 1.00% | 0.00% | 1.00% | – |
| B1 | – | – | – | – | – | – | – | – | – | – | – | – | – | – | – | – | greatest percentages of S100+ cells |
